Reference: patent US7390508B2, “Use of xenon with hypothermia for treating neonatal asphyxia” (Protexeon Limited, priority 2003, dated 2008)
“And” between values parts separate entries of the source, which are not always exact repeats. Equal entries are not always repeated.

Legend:
neuronal cultures = assay: oxygen-glucose deprivation (OGD)-induced lactate dehydrogenase (LDH) release in neuronal cultures; type: cell-based; conditions: for ED50 for xenon, OGD-induced LDH release: 75 minutes OGD, 6 hours of recovery, xenon concentration % atm, mean +/- SEM
Method: The effect of mild hypothermia on the neuroprotective effect of xenon (LDH release against xenon concentration, % atm) is shown in FIG. 7. […] Cooling by 4 degrees greatly enhances the potency of xenon in blocking LDH release. […] (red), or at 33° C. (blue). […] Neuronal injury is expressed as a percentage of the maximal LDH release after 75 minutes of OGD and 6 hours of recovery in the absence of either xenon or hypothermia. Points represent mean values, with error bars indicating standard errors.
From the slope of such a plot the enthalpy change of the process can be calculated, its size being a measure of the temperature dependence. The data in red show the effect of temperature on LDH release in the absence of xenon. The reduction of release as the temperature is reduced is expected but modest. […] Hypothermia therefore appears to greatly enhance the neuroprotective effects of xenon.

[1] = system: Seven day old postnatal Sprague-Dawley rats; assay: Neonatal asphyxia model, xenon during or 2 h after hypoxia (Example 1); type: in vivo, rat
Method: Seven day old postnatal Sprague-Dawley rats underwent right common carotid artery ligation under surgical anaesthesia (1%-1.5% isoflurane in pure oxygen). After ligation, the animals were returned to their mothers and placed in a specially designed area with constant of room temperature (23° C.) and humidity (48%). One hour after surgery, neonatal rats were placed in specially designed chamber with 8% oxygen combined with 0, 20, 40, 60 or 70% Xenon (with nitrogen making up the balance) for 90 min at 37° C. (temperature kept by water bath running outside chambers). At post-experimental day 7, rats (14 day old) were killed and their brains removed. The ratio of right hemisphere weight against left (R/L ratio) was calculated. Rat pups in some groups were allowed to live up to 30 days of postnatal age, at which time their neuromotor function and co-ordination were assessed with established protocols (Neuromotor testing and Rotarod testing).
The concentration-dependence of xenon neuroprotection (ratio right hemisphere weight/left against xenon concentration) is shown in FIG. 4. […] Control animals were subjected to carotid ligation but no hypoxia was given. Results are mean±SEM (n=5−8). * P<0.01 vs 8% O2.
At postnatal day 7 the right carotid artery was ligated and rat pups were exposed to a hypoxic environment (8% oxygen+70% xe and balance with nitrogen) for 90 min. Thirty days after the insult, rats were evaluated for neuromotor function (A) using a panel that included assays of prehensile traction, strength, and balance beam performance (graded on a 0-9 scale) and (B) balance on a Rotarod, a standard test of balance and neuromotor function. The data point from an individual rat is the sum of three tests. The horizontal bars indicate the median for each group.
The neuroprotective effect (ratio of right hemisphere/left) observed with N2 and xenon respectively is shown in FIG. 6, when xenon is administered 2 hours post HI insult. […]

[2] = system: p7 Sprague-Dawley rat pups; assay: 7-day-old rat model of focal HI, treatment 4 h post-insult, cresyl violet histology of apoptotic, necrotic and viable cells (Example 2); type: in vivo
Description: p7 Sprague-Dawley rat pups (weighing between 10 and 14 g) from Harlan, U.K. were subjected to a previously described model of HI injury (Levine, 1960; Rice et al, 1981). In brief, rat pups were anaesthetised with 2% isoflurane before undergoing permanent unilateral ligation of the right common carotid artery, using a midline neck incision and 5.0 silk suture. Once surgery was complete, pups recovered from the anaesthesia and were then returned to the dam until the time of experimentation.
1 hr after surgery, pups were exposed to hypoxia by placing them into purpose-built, airtight chambers that were partially submerged in a 37° C. water bath (FIG. 9). […] Hypoxia was induced by a continuous flow of humidified 8% oxygen, balanced with nitrogen, and this mixture was monitored every 15 minutes by a Datex Ohmeda (Bradford, U.K.). (All gases were supplied by BOC.)
Following HI, pups were returned to the dam for 4 hrs to recover, after which time they were subjected to 90 minutes of one of the experimental interventions below. […] No significant difference existed between the two time periods and thus 4 h post-insult was chosen as the time to apply the intervention, as it was thought to be the most clinically relevant.
Pups were returned to their mothers until sacrifice at 16, 24 and 48 h following treatment (Northington et al, 2001) (FIG. 10).
The same experimental paradigm was followed for treatment with xenon, but instead of hypothermia, the water bath was maintained at 37° C. and the gas mixture was changed to 25% oxygen and 75% xenon for 90 minutes. Gas was delivered into a purpose-built, closed system to minimise xenon leakage (FIG. 9). Once again, the pups were returned to their mothers until sacrifice.
In the combination paradigm, the rats underwent both hypothermia and xenon concurrently for 90 minutes. Again, the pups were placed in airtight chambers, but on this occasion, their temperatures were maintained at 35° C. and the gas mixture consisted of 25% oxygen, only 20% xenon and balanced nitrogen. This temperature and xenon concentration was shown in preliminary experiments, to confer no neuroprotective benefit to the developing brain when used independently. Thus, by using these values, any neuroprotective benefit at all is indicative of synergy between the two agents. Following treatment, pups were returned to their mothers until sacrifice.
Neuronal injury was assessed by histological analysis of paraffin brain slices stained with cresyl violet. Cresyl violet is a basic stain that binds to acidic components of neuronal cytoplasm such as RNA-rich ribosomes, and also the nuclei and nucleoli of nerve cells.
Each experimental group consisted of three time groups (16, 24, 48 h), and each time group contained three animals, (thus there were nine animals in total for each experimental group). Three slides per animal were chosen from the area of the brain that was −3.6 mm from the bregma (FIG. 11). Slides were then sorted into time groups and the examiner was blinded to the intervention.
Two areas from the ipsilateral side of each brain were analysed using a BX60 light microscope (Olympus, Southall, U.K.)—one in the cortex and one in the gyrus of the hippocampus (FIG. 11). A 40× objective lens with a grid was used to count the total number of cells that appeared in the grid. Cells were scored as either viable, apoptotic, or necrotic based on their morphological appearance, and the percentage of each cell type was noted down for each of the brain areas. An Axiocam digital camera (Zeiss, Göttingen, Germany) was used along with the microscope to take photomicrographs of the brain slices.
The criteria for assigning cells to each category was as follows (FIG. 12): • 1. Cells undergoing either type of cell death (apoptosis or necrosis) took up the cresyl violet stain more intensely than viable cells, which were regularly shaped with pale cytoplasm, and a clearly visible, darker nucleus. • 2. […]

[3] = xenon dissolved or dispersed in lipid emulsion; type: physicochemical; conditions: 20° C. and normal pressure
Method: It has been established that appreciable amounts of xenon maybe added to a lipid emulsion. Even by the simplest means, at 20° C. and normal pressure, xenon can be dissolved or dispersed in concentrations of 0.2 to 10 ml or more per ml of emulsion. The concentration of dissolved gas is dependent on a number of factors, including temperature, pressure and the concentration of lipid.

[4] = 20% xenon alone, 37° C., cortex, 16 h, mean±SD (n=3)
[5] = 75% xenon, 37° C., 90 min, cortex, 16 h, mean±SD (n=3)
[6] = 75% xenon, 37° C., 90 min, gyrus, 16 h, mean±SD (n=3)
[7] = combination 20% xenon + 35° C. hypothermia, cortex, 16 h, mean±SD (n=3)

temperature dependence of LDH release (van't Hoff plot) (neuronal cultures; 12.5% xenon present): very large and unexpected | ED50 for xenon, OGD-induced LDH release (neuronal cultures; 33° C.): 11.5+/−2.0% | ED50 for xenon, OGD-induced LDH release (neuronal cultures; 37° C.): 35.9+/−2.15% | concentration of xenon dissolved or dispersed in lipid emulsion [3]: 0.2 to 10 ml per ml of emulsion
SMILES: [Xe] [xenon]
concentration-dependence of xenon neuroprotection (ratio right hemisphere weight/left) ([1]; 0, 20, 40, 60 or 70% xenon with 8% oxygen for 90 min at 37° C., brains at 14 days): Neuroprotection is evident even at sub-anaesthetic concentrations | neuroprotective effect (ratio of right hemisphere/left) ([1]; 70% Xe+30% O2 for 90 min, given 2 hours after the end of the hypoxic period): effective in providing neuroprotection | gross anatomical appearance of brain slices ([1]; 70% xenon breathed during the 90 min hypoxic period): look close to normal | neuroprotection ([2]; 20% xenon alone, 37° C.): no neuroprotective effect | percentage of apoptosis [2, 4]: 36%±5.7% and 35.8%±5.7% | percentage of viability [2, 4]: 51%±7.8% | apoptosis (percentage of total cell number) [2, 5]: 8.5%±1.6% | viable cell count (percentage of total cell number) [2, 5]: 80.6%±0.2% | apoptosis (percentage of total cell number) [2, 6]: 13.9%±2.4% | viable cell count (percentage of total cell number) [2, 6]: 77.1%±3.3% | anti-necrosis ([2]; 75% xenon, 16 and 24 h groups): not anti-necrotic | anti-apoptosis compared to positive control animals ([2]; 75% xenon, 24 and 48 h groups, cortex and gyrus): statistically significant anti-apoptosis | percentage of viable cells vs. positive controls ([2]; 75% xenon, 24 h, cortex and gyrus): significant increase in the percentage of viable cells | necrosis (percentage of total cell number) ([2]; 75% xenon, cortex, 48 h, mean±SD (n=3)): 10.7%±0.4% | anti-necrosis ([2]; 75% xenon, gyrus, 48 h): not however anti-necrotic | neuroprotection ([2]; combination 20% xenon + 35° C. hypothermia, both areas of the brain, 16, 24 and 48 h): profound synergistic neuroprotection | apoptosis (percentage of total cell number) [2, 7]: 7.2%±2% | viable cells (percentage of total cell number) [2, 7]: 82.3%±4.9% | type of protection ([2]; combination 20% xenon + 35° C. hypothermia, gyrus, 24 h): anti-necrotic as well as anti-apoptotic protection
